Assay results from article PMC9719519, “Non-classical ferroptosis inhibition by a small molecule targeting PHB2” (Nature Communications, 2022).

How the values were obtained:
Assay in all cases: biochemical
Design in all cases: Eurofins recombinant human kinase profiling, remaining kinase activity as % of control, 10 uM ATP
Details in all cases: ATP 10 uM; read-out: %Ctrl@10 μM
SIK2(h) = SIK2(h) (Homo sapiens, UniProt Q9H0K1)
In short: (§1)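 Activity measured in a commercial panel of 401 recombinant human protein kinases run as a kinase profiling service.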

Src(1-530)(h) = molecular target: T1, Src(1-530)(h) (Homo sapiens, UniProt P12931)
T1 construct: residues 1-530
In short: as §1

PKCε(h) = molecular target: T2, PKCε(h) (Homo sapiens, UniProt Q02156)
T2 construct: gene PRKCE
T2 sequence (Q02156 whole entry): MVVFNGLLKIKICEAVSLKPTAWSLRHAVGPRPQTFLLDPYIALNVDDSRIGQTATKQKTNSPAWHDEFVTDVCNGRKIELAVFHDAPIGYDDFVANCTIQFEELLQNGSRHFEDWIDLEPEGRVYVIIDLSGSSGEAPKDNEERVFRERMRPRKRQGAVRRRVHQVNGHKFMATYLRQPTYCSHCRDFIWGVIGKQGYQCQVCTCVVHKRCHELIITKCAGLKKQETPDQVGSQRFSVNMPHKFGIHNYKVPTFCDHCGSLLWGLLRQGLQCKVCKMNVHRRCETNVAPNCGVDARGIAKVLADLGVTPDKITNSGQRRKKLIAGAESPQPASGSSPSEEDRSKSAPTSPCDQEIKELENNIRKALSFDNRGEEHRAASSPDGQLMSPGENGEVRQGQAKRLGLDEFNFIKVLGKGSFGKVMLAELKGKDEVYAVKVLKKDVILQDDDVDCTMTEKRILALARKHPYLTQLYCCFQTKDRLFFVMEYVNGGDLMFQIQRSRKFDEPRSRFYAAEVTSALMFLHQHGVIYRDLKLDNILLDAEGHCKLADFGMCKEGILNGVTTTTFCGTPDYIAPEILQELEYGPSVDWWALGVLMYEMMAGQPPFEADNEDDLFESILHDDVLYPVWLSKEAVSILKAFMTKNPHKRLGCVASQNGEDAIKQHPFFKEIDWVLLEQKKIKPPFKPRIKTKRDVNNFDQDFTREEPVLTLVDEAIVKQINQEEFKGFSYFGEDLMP
In short: as §1

HIPK3(h) = HIPK3(h) (Homo sapiens, UniProt Q9H422)
In short: as §1

MST2(h) = molecular target: T3, MST2(h) (Homo sapiens, UniProt Q13188)
T3 construct: gene STK3
In short: as §1

STK32B(h) = STK32B(h) (Homo sapiens, UniProt Q9NY57)
Sequence of STK32B(h) (Q9NY57 whole entry): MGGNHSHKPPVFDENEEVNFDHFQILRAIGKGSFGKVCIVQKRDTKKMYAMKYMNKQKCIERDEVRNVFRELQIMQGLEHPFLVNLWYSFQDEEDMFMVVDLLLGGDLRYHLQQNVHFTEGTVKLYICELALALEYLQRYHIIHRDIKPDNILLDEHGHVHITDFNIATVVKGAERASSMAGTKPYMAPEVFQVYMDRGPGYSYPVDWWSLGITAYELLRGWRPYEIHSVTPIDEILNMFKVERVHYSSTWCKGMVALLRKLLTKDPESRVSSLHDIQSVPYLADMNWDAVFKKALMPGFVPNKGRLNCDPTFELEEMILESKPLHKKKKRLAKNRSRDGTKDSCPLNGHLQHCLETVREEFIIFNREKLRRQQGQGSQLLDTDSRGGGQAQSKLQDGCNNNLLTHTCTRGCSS
In short: as §1

MYLK2(h) = MYLK2(h) (Homo sapiens, UniProt Q9H1R3)
In short: as §1

EGFR(L861Q)(h) = EGFR(L861Q)(h) (Homo sapiens, UniProt P00533, L861Q)
In short: as §1

PKCι(h) = molecular target: T4, PKCι(h) (Homo sapiens, UniProt P41743)
T4 construct: gene PRKCI
T4 sequence (P41743 whole entry): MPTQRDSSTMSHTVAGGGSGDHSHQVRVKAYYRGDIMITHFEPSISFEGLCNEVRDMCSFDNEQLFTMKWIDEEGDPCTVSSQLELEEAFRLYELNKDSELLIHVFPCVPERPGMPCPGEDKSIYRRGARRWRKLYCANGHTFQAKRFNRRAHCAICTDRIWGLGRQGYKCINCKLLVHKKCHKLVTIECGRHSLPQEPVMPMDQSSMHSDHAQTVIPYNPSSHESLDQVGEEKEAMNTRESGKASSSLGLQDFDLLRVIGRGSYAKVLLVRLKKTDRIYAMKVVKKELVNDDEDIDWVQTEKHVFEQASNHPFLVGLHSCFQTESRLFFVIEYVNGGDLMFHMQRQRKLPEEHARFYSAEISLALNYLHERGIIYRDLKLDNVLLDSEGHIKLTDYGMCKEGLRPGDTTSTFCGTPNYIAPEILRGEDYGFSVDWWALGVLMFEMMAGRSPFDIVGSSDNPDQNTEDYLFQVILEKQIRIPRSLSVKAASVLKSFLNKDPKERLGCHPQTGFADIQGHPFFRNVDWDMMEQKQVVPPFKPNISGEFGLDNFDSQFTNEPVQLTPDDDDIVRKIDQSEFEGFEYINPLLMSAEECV
In short: as §1

PKA(h) = molecular target: T5, PKA(h) (Homo sapiens, UniProt P17612)
T5 construct: gene PRKACA
In short: as §1

TGFBR2(h) = TGFBR2(h) (Homo sapiens, UniProt P37173)
In short: as §1

EphB1(h) = EphB1(h) (Homo sapiens, UniProt P54762)
Sequence of EphB1(h) (P54762 whole entry): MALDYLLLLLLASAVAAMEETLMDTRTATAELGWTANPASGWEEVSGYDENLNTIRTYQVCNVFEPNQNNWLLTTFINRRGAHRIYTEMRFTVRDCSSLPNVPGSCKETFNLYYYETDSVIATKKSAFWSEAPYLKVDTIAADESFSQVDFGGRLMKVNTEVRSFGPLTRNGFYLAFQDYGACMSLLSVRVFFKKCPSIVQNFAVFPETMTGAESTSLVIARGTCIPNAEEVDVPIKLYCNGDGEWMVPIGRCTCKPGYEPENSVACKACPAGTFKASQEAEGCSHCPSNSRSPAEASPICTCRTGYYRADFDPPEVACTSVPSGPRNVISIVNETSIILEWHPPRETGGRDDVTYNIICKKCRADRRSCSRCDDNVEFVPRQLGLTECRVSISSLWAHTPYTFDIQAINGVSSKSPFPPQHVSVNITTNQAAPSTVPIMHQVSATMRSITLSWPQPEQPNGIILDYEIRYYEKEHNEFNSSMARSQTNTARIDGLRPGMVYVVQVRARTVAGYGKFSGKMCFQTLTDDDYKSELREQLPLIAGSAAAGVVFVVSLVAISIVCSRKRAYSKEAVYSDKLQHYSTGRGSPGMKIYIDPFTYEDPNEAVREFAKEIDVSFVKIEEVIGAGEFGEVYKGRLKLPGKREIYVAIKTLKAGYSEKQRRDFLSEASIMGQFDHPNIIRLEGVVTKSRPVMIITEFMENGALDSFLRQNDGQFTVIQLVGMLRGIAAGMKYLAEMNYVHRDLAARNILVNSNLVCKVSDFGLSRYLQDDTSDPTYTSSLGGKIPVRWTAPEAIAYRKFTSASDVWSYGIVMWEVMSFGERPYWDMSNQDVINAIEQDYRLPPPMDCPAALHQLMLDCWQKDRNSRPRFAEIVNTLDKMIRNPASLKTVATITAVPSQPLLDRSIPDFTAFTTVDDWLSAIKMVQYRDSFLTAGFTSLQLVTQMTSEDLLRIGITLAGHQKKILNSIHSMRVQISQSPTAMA
In short: as §1

DYRK2(h) = DYRK2(h) (Homo sapiens, UniProt Q92630)
In short: as §1

LIMK1(h) = LIMK1(h) (Homo sapiens, UniProt P53667)
In short: as §1

SBK1(h) = SBK1(h) (Homo sapiens, UniProt Q52WX2)
In short: as §1

CaMKI(h) = molecular target: T6, CaMKI(h) (Homo sapiens, UniProt Q14012)
T6 construct: gene CAMK1
In short: as §1

ZAK(h) = molecular target: T7, ZAK(h) (Homo sapiens, UniProt Q9NYL2)
T7 construct: gene MAP3K20
In short: as §1

p70S6K(h) = molecular target: T8, p70S6K(h) (Homo sapiens, UniProt P23443)
T8 construct: gene RPS6KB1
In short: as §1

Pyk2(h) = molecular target: T9, Pyk2(h) (Homo sapiens, UniProt Q14289)
T9 construct: gene PTK2B
In short: as §1

MINK(h) = molecular target: T10, MINK(h) (Homo sapiens, UniProt Q8N4C8)
T10 construct: gene MINK1
In short: as §1

SAPK3(h) = molecular target: T11, SAPK3(h) (Homo sapiens, UniProt P53778)
T11 construct: gene MAPK12
T11 sequence (P53778 whole entry): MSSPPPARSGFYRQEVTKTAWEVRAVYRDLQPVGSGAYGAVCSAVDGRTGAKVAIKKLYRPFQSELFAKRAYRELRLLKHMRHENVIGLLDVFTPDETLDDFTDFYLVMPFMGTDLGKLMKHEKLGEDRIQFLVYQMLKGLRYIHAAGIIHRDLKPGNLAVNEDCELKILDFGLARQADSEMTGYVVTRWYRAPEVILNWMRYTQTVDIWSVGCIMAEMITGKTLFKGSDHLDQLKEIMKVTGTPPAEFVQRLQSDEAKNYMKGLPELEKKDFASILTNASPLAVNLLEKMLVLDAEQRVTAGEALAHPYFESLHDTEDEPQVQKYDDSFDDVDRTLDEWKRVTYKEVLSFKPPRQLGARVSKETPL
In short: as §1

PTK5(h) = molecular target: T12, PTK5(h) (Homo sapiens, UniProt P42685)
T12 construct: gene FRK
In short: as §1

Rse(h) = molecular target: T13, Rse(h) (Homo sapiens, UniProt Q06418)
T13 construct: gene TYRO3
T13 sequence (Q06418 whole entry): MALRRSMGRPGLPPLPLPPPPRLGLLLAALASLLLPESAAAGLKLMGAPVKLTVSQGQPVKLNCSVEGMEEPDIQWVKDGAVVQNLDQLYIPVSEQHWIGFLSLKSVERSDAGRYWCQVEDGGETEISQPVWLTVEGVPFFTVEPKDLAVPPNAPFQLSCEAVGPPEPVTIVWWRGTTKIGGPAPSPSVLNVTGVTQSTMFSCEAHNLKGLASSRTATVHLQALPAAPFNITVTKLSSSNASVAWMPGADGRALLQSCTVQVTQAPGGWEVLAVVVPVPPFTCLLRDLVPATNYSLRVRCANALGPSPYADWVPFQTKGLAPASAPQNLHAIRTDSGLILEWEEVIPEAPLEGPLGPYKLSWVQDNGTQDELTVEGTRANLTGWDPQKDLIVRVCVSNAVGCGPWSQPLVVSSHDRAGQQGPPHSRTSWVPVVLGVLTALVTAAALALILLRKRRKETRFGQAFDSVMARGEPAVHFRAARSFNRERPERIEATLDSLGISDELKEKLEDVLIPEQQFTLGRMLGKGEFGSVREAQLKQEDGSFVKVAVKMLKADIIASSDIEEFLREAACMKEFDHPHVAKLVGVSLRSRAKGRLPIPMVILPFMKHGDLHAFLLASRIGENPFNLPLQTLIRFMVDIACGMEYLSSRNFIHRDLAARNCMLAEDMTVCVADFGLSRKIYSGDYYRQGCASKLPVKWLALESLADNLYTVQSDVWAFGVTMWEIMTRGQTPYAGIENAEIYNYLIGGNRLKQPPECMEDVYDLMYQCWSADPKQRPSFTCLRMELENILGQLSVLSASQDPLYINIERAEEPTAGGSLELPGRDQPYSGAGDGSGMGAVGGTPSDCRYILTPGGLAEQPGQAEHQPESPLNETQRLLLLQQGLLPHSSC
In short: as §1

Sequence of SIK2(h) (Q9H0K1 whole entry): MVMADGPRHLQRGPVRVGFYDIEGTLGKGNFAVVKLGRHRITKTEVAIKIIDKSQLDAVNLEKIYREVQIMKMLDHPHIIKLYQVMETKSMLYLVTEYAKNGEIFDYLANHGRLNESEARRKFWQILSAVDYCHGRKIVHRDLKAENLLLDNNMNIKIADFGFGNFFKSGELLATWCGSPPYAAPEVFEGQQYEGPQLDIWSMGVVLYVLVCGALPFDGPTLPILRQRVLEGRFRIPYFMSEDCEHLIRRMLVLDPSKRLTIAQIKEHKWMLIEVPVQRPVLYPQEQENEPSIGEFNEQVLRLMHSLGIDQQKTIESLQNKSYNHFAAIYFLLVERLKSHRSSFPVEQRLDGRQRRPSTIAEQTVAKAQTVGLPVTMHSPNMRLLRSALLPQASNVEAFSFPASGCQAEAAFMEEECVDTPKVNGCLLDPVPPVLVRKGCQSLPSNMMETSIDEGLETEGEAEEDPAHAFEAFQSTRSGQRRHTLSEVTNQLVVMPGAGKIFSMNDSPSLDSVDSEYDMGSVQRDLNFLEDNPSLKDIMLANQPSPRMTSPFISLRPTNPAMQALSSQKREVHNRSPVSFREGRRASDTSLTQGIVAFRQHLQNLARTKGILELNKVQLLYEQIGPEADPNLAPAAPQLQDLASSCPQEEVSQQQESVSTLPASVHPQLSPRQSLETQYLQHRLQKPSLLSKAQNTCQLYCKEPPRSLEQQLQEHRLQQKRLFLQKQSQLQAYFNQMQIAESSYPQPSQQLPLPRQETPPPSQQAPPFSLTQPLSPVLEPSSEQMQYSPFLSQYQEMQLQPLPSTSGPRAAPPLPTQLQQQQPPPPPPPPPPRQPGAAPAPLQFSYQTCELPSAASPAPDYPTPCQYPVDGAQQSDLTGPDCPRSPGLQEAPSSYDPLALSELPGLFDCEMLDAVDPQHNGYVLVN

C1=C(c2nc(-c3cnn(C4CCNCC4)c3)cn3cc(-c4ccccc4)nc23)CCOC1 [YL-939]
remaining activity at 10 µM (SIK2(h)): 94%
remaining activity at 10 µM (Src(1-530)(h)): 85%
remaining activity at 10 µM (PKCε(h)): 95%
remaining activity at 10 µM (HIPK3(h)): 86%
remaining activity at 10 µM (MST2(h)): 78%
remaining activity at 10 µM (STK32B(h)): 105%
remaining activity at 10 µM (MYLK2(h)): 52%
remaining activity at 10 µM (EGFR(L861Q)(h)): 61%
remaining activity at 10 µM (PKCι(h)): 85%
remaining activity at 10 µM (PKA(h)): 98%
remaining activity at 10 µM (TGFBR2(h)): 97%
remaining activity at 10 µM (EphB1(h)): 99%
remaining activity at 10 µM (DYRK2(h)): 93%
remaining activity at 10 µM (LIMK1(h)): 86%
remaining activity at 10 µM (SBK1(h)): 106%
remaining activity at 10 µM (CaMKI(h)): 81%
remaining activity at 10 µM (ZAK(h)): 85%
remaining activity at 10 µM (p70S6K(h)): 61%
remaining activity at 10 µM (Pyk2(h)): 108%
remaining activity at 10 µM (MINK(h)): 95%
remaining activity at 10 µM (SAPK3(h)): 75%
remaining activity at 10 µM (PTK5(h)): 75%
remaining activity at 10 µM (Rse(h)): 98%
